Reference: patent US10696989B2, “Biological method for preparing heme iron not derived from porcine blood” (INTRON BIOTECHNOLOGY, INC., priority 2017, dated 2020)

Tested on: iron-deficiency-anemia-induced animals
Experiment: Effectiveness of heme iron salt on alleviating anemia in iron-deficiency-anemia-induced rats
Assay type: in vivo, Sprague-Dawley rats
Details: oral once a day, 0.1 mg Fe/500 μl saline
Method: The salt of the heme iron prepared according to the present invention was dissolved in saline and administered to iron-deficiency-anemia-induced animals, whereby the effectiveness of the salt of the heme iron prepared according to the present invention on alleviating anemia was evaluated. Specifically, thirty 7-week-old Sprague-Dawley rats (female) were divided into 3 groups of 10 rats per group, among which one group was fed with normal feed in an amount of 10% of body weight daily for one month (Group 1; control), and the remaining two groups were fed with iron-deficient feed in an amount of 10% of body weight daily for one month to induce iron-deficiency anemia (Group 2 and Group 3). After one month of feeding, it was confirmed that iron-deficiency anemia was induced in the individual rat belonging to Group 2 and Group 3. Then, one of the anemia-induced groups was orally administered once a day with saline alone (Group 2), and the other anemia-induced group was orally administered once a day with saline containing heme iron (0.1 mg Fe/500 μl saline) (Group 3). The administration continued for 30 days, and the occurrence of abnormal symptoms was monitored during the administration period. After 30 days of administration, blood was collected, and whether anemia was alleviated was evaluated. During 30 days of administration to Group 2 and Group 3, Group 1 was continuously fed with normal feed, and Group 2 and Group 3 were fed with iron-deficient feed. […]

[1] = female rats on iron-deficient feed, blood collected after 30 days

Weight of rats on 30th day after administration (female rats on iron-deficient feed, 30 days): 265.2 ± 1.1 g
Occurrence of abnormal symptoms during the administration period (30 days): no abnormal symptoms
Substance: heme iron
Blood test: Hematocrit [1]: 35.8 ± 1.9%
Blood test: Hemoglobin content [1]: 14.2 ± 0.4 g/dL
Blood test: Mean corpuscular volume [1]: 48.2 ± 2.2 fL
Blood test: RBC [1]: 8.59 ± 0.1 ×10^6/μl
Alleviation of iron-deficiency anemia (conclusion) (30 days): effective at alleviating iron-deficiency anemia
